How the values were obtained:
[1] = biological target: Protein cereblon/Bcl-2-like protein 1 (Homo sapiens, UniProt Q07817+Q96SW2); assay: PROTAC activity at CRBN/BCL-XL in human MOLT-4 cells assessed as induction of BCL-XL degradation incubated for 16 hrs by Western blot analysis; type: cell-based
[2] = biological target: Microtubule-associated protein tau (Homo sapiens, UniProt P10636); assay: Binding affinity to N-terminal His-tagged recombinant human Tau40 expressed in Escherichia coli Rosetta (DE3) assessed as dissociation constant incubated for 0.5 hrs by fluorescence polarization assay
Microtubule-associated protein tau, sequence (P10636 whole entry): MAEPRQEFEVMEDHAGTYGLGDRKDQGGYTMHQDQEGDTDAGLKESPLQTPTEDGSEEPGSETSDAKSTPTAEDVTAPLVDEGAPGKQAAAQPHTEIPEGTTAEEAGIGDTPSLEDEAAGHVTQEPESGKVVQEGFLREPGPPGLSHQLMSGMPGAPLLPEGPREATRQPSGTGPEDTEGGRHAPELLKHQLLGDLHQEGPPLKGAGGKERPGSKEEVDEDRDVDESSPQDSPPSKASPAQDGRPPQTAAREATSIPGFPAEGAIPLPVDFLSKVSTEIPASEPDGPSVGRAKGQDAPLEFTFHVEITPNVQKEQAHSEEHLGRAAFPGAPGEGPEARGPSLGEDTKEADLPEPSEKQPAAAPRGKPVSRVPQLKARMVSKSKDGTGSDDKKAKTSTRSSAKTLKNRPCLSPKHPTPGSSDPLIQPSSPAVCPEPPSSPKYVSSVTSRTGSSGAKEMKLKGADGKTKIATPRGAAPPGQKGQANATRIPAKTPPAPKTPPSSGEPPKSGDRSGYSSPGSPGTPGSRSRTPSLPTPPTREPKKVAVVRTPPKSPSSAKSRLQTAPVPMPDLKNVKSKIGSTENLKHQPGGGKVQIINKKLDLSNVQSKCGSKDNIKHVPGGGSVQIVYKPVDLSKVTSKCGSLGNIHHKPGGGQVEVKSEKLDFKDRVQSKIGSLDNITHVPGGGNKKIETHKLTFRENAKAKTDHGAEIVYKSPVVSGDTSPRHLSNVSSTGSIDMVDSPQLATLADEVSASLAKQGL

Protein cereblon/Bcl-2-like protein 1, sequence (Q07817 whole entry): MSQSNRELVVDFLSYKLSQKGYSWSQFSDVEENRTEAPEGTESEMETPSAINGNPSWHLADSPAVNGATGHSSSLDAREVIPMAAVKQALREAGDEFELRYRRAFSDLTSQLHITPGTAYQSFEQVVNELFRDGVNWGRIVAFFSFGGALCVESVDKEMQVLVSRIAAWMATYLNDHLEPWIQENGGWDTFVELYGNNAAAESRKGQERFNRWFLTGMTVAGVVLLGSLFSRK
Protein cereblon/Bcl-2-like protein 1, sequence (Q96SW2 whole entry): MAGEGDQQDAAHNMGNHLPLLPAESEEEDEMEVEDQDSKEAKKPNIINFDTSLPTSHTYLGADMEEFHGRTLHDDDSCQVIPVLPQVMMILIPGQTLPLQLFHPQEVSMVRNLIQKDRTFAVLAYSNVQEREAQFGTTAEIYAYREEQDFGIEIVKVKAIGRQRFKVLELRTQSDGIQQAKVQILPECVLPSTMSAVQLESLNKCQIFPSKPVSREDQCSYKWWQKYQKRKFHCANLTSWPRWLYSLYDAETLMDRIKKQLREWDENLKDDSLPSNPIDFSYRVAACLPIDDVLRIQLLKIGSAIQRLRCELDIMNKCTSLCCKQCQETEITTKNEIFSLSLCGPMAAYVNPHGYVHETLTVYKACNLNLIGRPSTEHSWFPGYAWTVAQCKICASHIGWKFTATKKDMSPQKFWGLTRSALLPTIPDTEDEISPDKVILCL

SMILES | EC50 [1] [nM] | Kd [2] [nM]
O=C1CCC(N2C(=O)c3cccc(NCCOCCOCc4cn(CCCC(=O)N5CCN(CC#Cc6ccc(OCCCc7sc(N8CCc9cccc(C(=O)Nc%10nc%11ccccc%11s%10)c9C8)nc7C(=O)O)c(F)c6)CC5)nn4)c3C2=O)C(=O)N1 (configuration not stated) | 50 | –
CC[C@H](C)[C@H](NC(=O)[C@H](Cc1ccc(O)cc1)NC(=O)[C@@H]1CCCN1C(=O)[C@H](C)NC(=O)[C@H](CC(C)C)NC(=O)[C@H](C)NC(=O)[C@H](CO)NC(=O)CNC(=O)[C@H](CO)NC(=O)CNC(=O)CNC(=O)[C@H](CCC(N)=O)NC(=O)[C@H](CCC(=O)O)NC(=O)[C@H](CC(=O)O)NC(=O)[C@H](C)NC(=O)[C@@H](NC(=O)[C@H](C)NC(=O)[C@H](CC(=O)O)NC(=O)[C@H](CCC(N)=O)NC(=O)[C@H](Cc1ccc(O)cc1)NC(=O)[C@H](CCC(N)=O)NC(=O)[C@H](CCC(N)=O)NC(=O)[C@@H](N)Cc1ccc(O)cc1)[C@@H](C)O)C(=O)N1CCC[C@H]1C(=O)N[C@H](CCCNC(=N)N)C(=O)N[C@H](CCCNC(=N)N)C(=O)N[C@H](CCCNC(=N)N)C(=O)N[C@H](CCCNC(=N)N)C(=O)N[C@H](CCCNC(=N)N)C(=O)N[C@H](CCCNC(=N)N)C(=O)N[C@H](CCCNC(=N)N)C(=O)N[C@H](CCCNC(=N)N)C(=O)O | – | 394

— ChEMBL document CHEMBL5214885, “PROTACs to address the challenges facing small molecule inhibitors” (Eur J Med Chem, 2021)
